According to patent US8993565B2, “(6-oxo-1,6-dihydropyrimidin-2-yl)amide derivatives, preparation thereof and pharmaceutical use thereof as AKT(PKB) phosphorylation inhibitors” (Sanofi, priority 2009, dated 2015):

Key:
[1] = tested on: AKT protein phosphorylated on serine 473 (P-AKT-S473); assay: Study of pAKT expression in PC3 human prostate carcinoma cells measured by the MSD Multi-spot Biomarker Detection technique (Test B); type: cell-based; conditions: PC-3, inhibition of AKT phosphorylation (P-AKT-S473), MSD sandwich immunoassay, 1 to 2 h incubation, absolute IC50, mean of 2 experiments
Summary of the method: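 Lysate P-AKT-S473 quantified by MSD electrochemiluminescent sandwich immunoassay; inhibition vs DMSO and cell-free background, IC50 averaged over 2 experiments.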

[2] = tested on: AKT protein phosphorylated on serine 473 (pAKT-S473); assay: Study of pAKT expression in PC3 human prostate carcinoma cells measured by western blotting (Test A); type: cell-based; conditions: PC-3, inhibition of AKT phosphorylation (pAKT-S473), 1 to 2 hours incubation, absolute IC50, mean of two experiments
Experimental: The inhibitory activity of the molecules on AKT phosphorylation is measured either by western blotting using the technique described below, or by the MSD Multi-spot Biomarker detection technique from Meso Scale Discovery also described below.
Study of pAKT Expression in PC3 Human Prostate Carcinoma Cells Measured by Western Blotting (Test A):
On day 2, the cells are incubated in the presence or absence of the test products for 1 to 2 hours at 37° C. in the presence of 5% CO2. The molecules, diluted in dimethyl sulphoxide (DMSO Sigma #D2650), are added from a 10-times concentrated stock solution, the final percentage of DMSO being 0.1%. The molecules are tested either at a single concentration of less than or equal to 10 μM, or at increasing concentrations in a range that can extend from less than 1 nM to 10 μM.
After this incubation, the cells are lysed for the preparation of the proteins.
The lysate is centrifuged for 10 min at 6000 rpm. 155 μl of supernatant are recovered. 150 μl are incubated for denaturation for 5 min at 95° C. in the presence of 4× NuPAGE LDS Sample Buffer diluted 4-fold (InVitrogen ref NP0007) and of 10× NuPAGE Sample Reducing Agent diluted 10-fold (InVitrogen ref NP0009). These samples are then frozen at −20° C.
The gel is then transferred on to an Invitrolon PVDF membrane (Invitrogen #LC2007) permeabilised beforehand and for a few seconds in ethanol (Ethanol Fischer Scientific #E/0600DF/15).
The transfer is carried out in a Biorad tank at 30 volts overnight or at 60 volts for 3 hours, in the presence of 20× NUPAGE Transfer Buffer diluted 20-fold (InVitrogen ref NP0006).
The membrane is then saturated in saturating solution composed of TBS (10× Tris Buffered Saline, Sigma #T5912, diluted 10-fold), 0.1% Tween (Sigma #P5927) and 3% BSA (Bovine Albumin Serum Fraction V, Sigma #A4503) for 6 h after overnight transfer or else for 1 h after transfer for a period of 3 h.
Two rinses for min in washing solution composed of TBS and 0.1% Tween 20 are carried out before hybridisation of the secondary antibodies.
The secondary antibodies are diluted 110000th for the rabbit anti-Mouse IgG HRP antibody (W402 Promega) and to 110000th for the goat anti-Rabbit IgG HRP antibody (W401 Promega) in saturating solution, and then shaken for 1 h at ambient temperature.
Two rinses for 30 min in washing solution are carried out and then a rinse for 5 min in H2O is carried out in order to eliminate the remaining Tween 20.
The luminescence is read with the FujiFilm device (Ray Test).
The FUJI device measures the total luminescence signal obtained (AU) for each band selected. It then subtracts the background noise (BG) proportional to the size of the band selected (Area), said background noise being calculated from a specific background noise band, with a view to obtaining the specific signal (AU-BG) for each band. The band obtained in the absence of product and in the presence of 0.1% DMSO is considered to be the 100% signal. The software calculates the % specific activity (Ratio) obtained for each band selected as a function of this 100% signal. The percentage inhibition is calculated for each concentration according to the formula (100%−Ratio).
Two independent experiments make it possible to calculate the mean of the percentages of inhibition obtained at a given concentration for the products tested only at one concentration.
Two independent experiments make it possible to calculate the mean of the IC50s.

Row | Structure (SMILES) | IC50 [1] [nM] | IC50 [2] [nM]
1 | CCOc1cccc(NC(=O)Cc2nc(N3CCOCC3)cc(=O)[nH]2)c1 [Example 58, N-(3-ethoxyphenyl)-2-[4-(morpholin-4-yl)-6-oxo-1,6-dihydropyrimidin-2-yl]acetamide] | 71 | 760
2 | O=C(Cc1nc(N2CCOCC2)cc(=O)[nH]1)Nc1cccc(C(F)(F)F)c1 [Example 17, 2-[4-(morpholin-4-yl)-6-oxo-1,6-dihydropyrimidin-2-y]-N-[3-(trifluoromethyl)phenyl]acetamide] | – | 1480
3 | Cc1cccc(NC(=O)Cc2nc(N3CCOCC3)cc(=O)[nH]2)c1F [Example 41, N-(2-fluoro-3-methylphenyl)-2-[4-(morpholin-4-yl)-6-oxo-1,6-dihydropyrimidin-2-yl]acetamide] | 60 | 290
4 | O=C(Cc1nc(N2CCOCC2)cc(=O)[nH]1)N1CCOc2ccccc21 [Example 62, 2-[2-(2,3-dihydro-4H-1,4-benzoxazin-4-yl)-2-oxoethyl]-6-(morpholin-4-yl)pyrimidin-4(3H)-one] | – | 530
5 | O=C(Cc1nc(N2CCOCC2)cc(=O)[nH]1)Nc1cccc(C(=O)O)c1 [Example 21, 3-({[4-(morpholin-4-yl)-6-oxo-1,6-dihydropyrimidin-2-yl]acetyl}amino)benzoic acid] | – | 10000
6 | Cc1ccccc1NC(=O)Cc1nc(N2CCOCC2)cc(=O)[nH]1 [Example 10, N-(2-methylphenyl)-2-[4-(morpholin-4-yl)-6-oxo-1,6-dihydropyrimidin-2-yl]acetamide] | – | 3500
7 | CC(C)c1cccc(NC(=O)Cc2nc(N3CCOCC3)cc(=O)[nH]2)c1 [Example 22, 2-[4-(morpholin-4-yl)-6-oxo-1,6-dihydropyrimidin-2-yl]-N-[3-(propan-2-yl)phenyl]acetamide] | – | 350
8 | O=C(Cc1nc(N2CCOCC2)cc(=O)[nH]1)Nc1ccccc1 [Example 1, 2-[4-(morpholin-4-yl)-6-oxo-1,6-dihydropyrimidin-2-yl]-N-phenylacetamide] | – | 102
9 | O=C(Cc1nc(N2CCOCC2)cc(=O)[nH]1)Nc1cccc(OC(F)(F)F)c1 [Example 43, 2-[4-(morpholin-4-yl)-6-oxo-1,6-dihydropyrimidin-2-yl]-N-[3-(trifluoromethoxy)phenyl]acetamide] | – | 549
10 | O=C(Cc1nc(N2CCOCC2)cc(=O)[nH]1)Nc1cc(F)ccc1O [Example 65, N-(5-fluoro-2-hydroxyphenyl)-2-[4-(morpholin-4-yl)-6-oxo-1,6-dihydropyrimidin-2-yl]acetamide] | – | 6460
11 | O=C(Cc1nc(N2CCOCC2)cc(=O)[nH]1)Nc1cccc(OC(F)F)c1 [Example 38, N-[3-(difluoromethoxy)phenyl]-2-[4-(morpholin-4-yl)-6-oxo-1,6-dihydropyrimidin-2-yl]acetamide] | – | 480
12 | O=C(Cc1nc(N2CCOCC2)cc(=O)[nH]1)Nc1cccc2ocnc12 [Example 42, N-(1,3-benzoxazol-4-yl)-2-[4-(morpholin-4-yl)-6-oxo-1,6-dihydropyrimidin-2-yl]acetamide] | 148 | 400
13 | O=C(Cc1nc(N2CCOCC2)cc(=O)[nH]1)Nc1cccc2[nH]ccc12 [Example 71, N-(1 H-indol-4-yl)-2-[4-(morpholin-4-yl)-6-oxo-1,6-dihydropyrimidin-2-yl]acetamide] | 120 | 5380
14 | Cn1c(CC(=O)Nc2ccc(F)c(Cl)c2)nc(N2CCOCC2)cc1=O [Example 68, N-(3-chloro-4-fluorophenyl)-2-[1-methyl-4-(morpholin-4-yl)-6-oxo-1,6-dihydropyrimidin-2-yl]acetamide] | 79 | 202
15 | Cn1c(CC(=O)Nc2ccc(F)cc2)nc(N2CCOCC2)cc1=O [Example 67, N-(4-fluorophenyl)-2-[1-methyl-4-(morpholin-4-yl)-6-oxo-1,6-dihydropyrimidin-2-yl]acetamide] | – | 2210

Next, values leading:

Row | IC50 [1] [nM] | IC50 [2] [nM] | Structure (SMILES)
16 | 67 | 807 | O=C(Cc1nc(N2CCOCC2)cc(=O)[nH]1)Nc1ccc(F)c(OC(F)(F)F)c1 [Example 54, N-[4-fluoro-3-(trifluoromethoxy)phenyl]-2-[4-(morpholin-4-yl)-6-oxo-1,6-dihydropyrimidin-2-yl]acetamide]
17 | – | 1760 | COc1cc(NC(=O)C(C)c2nc(N3CCOCC3)cc(=O)[nH]2)ccc1F (stereo not drawn) [Example 39, N-(4-fluoro-3-methoxyphenyl)-2-[4-(morpholin-4-yl)-6-oxo-1,6-dihydropyrimidin-2-yl]propanamide]
18 | – | 6160 | O=C(Cc1nc(N2CCOCC2)cc(=O)[nH]1)Nc1ccc(F)c([N+](=O)[O-])c1 [Example 63, N-(4-fluoro-3-nitrophenyl)-2-[4-(morpholin-4-yl)-6-oxo-1,6-dihydropyrimidin-2-yl]acetamide]
19 | – | 93 | O=C(Cc1nc(N2CCOCC2)cc(=O)[nH]1)Nc1ccc(F)c(Br)c1 [Example 33, N-(3-bromo-4-fluorophenyl)-2-[4-(morpholin-4-yl)-6-oxo-1,6-dihydropyrimidin-2-yl]acetamide]
20 | – | 1310 | COC(=O)c1cccc(NC(=O)Cc2nc(N3CCOCC3)cc(=O)[nH]2)c1 [Example 20, methyl 3-({[4-(morpholin-4-yl)-6-oxo-1,6-dihydropyrimidin-2-yl]acetyl}amino)benzoate]
21 | – | 1420 | O=C(Cc1nc(N2CCOCC2)cc(=O)[nH]1)Nc1ccc(Cl)cc1 [Example 15, N-(4-chlorophenyl)-2-[4-(morpholin-4-yl)-6-oxo-1,6-dihydropyrimidin-2-yl]acetamide]
22 | – | 346 | O=C(Cc1nc(N2CCOCC2)cc(=O)[nH]1)Nc1ccc(F)c(C(F)(F)F)c1 [Example 47, N-[4-fluoro-3-(trifluoromethyl)phenyl]-2-[4-(morpholin-4-yl)-6-oxo-1,6-dihydropyrimidin-2-yl]acetamide]
23 | – | 100 | O=C(Cc1nc(N2CCOCC2)cc(=O)[nH]1)Nc1cccc(Cl)c1 [Example 3, N-(3-chlorophenyl)-2-[4-(morpholin-4-yl)-6-oxo-1,6-dihydropyrimidin-2-yl]acetamide]
24 | 74 | 570 | O=C(Cc1nc(N2CCOCC2)cc(=O)[nH]1)Nc1cccc(F)c1 [Example 14, N-(3-fluorophenyl)-2-[4-(morpholin-4-yl)-6-oxo-1,6-dihydropyrimidin-2-yl]acetamide]
25 | – | 321 | O=C(Cc1nc(N2CCOCC2)cc(=O)[nH]1)Nc1ccc(F)cc1 [Example 2, N-(4-fluorophenyl)-2-[4-(morpholin-4-yl)-6-oxo-1,6-dihydropyrimidin-2-yl]acetamide]
26 | – | 39 | Cc1cccc(NC(=O)Cc2nc(N3CCOCC3)cc(=O)[nH]2)c1 [Example 23, N-(3-methylphenyl)-2-[4-(morpholin-4-yl)-6-oxo-1,6-dihydropyrimidin-2-yl]acetamide]
27 | – | 137 | O=C(Cc1nc(N2CCOCC2)cc(=O)[nH]1)Nc1cccc(I)c1 [Example 56, N-(3-iodophenyl)-2-[4-(morpholin-4-yl)-6-oxo-1,6-dihydropyrimidin-2-yl]acetamide]
28 | – | 261 | COc1cc(F)ccc1NC(=O)Cc1nc(N2CCOCC2)cc(=O)[nH]1 [Example 45, N-(4-fluoro-2-methoxyphenyl)-2-[4-(morpholin-4-yl)-6-oxo-1,6-dihydropyrimidin-2-yl]acetamide]
29 | – | 318 | COc1cc(NC(=O)Cc2nc(N3CCOCC3)cc(=O)[nH]2)ccc1F [Example 8, N-(4-fluoro-3-methoxyphenyl)-2-[4-(morpholin-4-yl)-6-oxo-1,6-dihydropyrimidin-2-yl]acetamide]
